# From US8933233B2, “1,3,4-oxadiazole and 1,3,4-thiadiazole β-lactamase inhibitors” (priority 2012, dated 2015)
# Counter-ions that a name gives are not always drawn.
# System: bacterial strains that express the class D cephalosporinase OXA-15
# Assay: Synergy MIC / standard BLI potentiation MIC assay, strains expressing OXA-15
# Format: cell-based, E. coli
# Details: in presence of a β-lactam; comparator Avibactam (CCC)
# Description: Unless otherwise indicated, the activity of the BLI compounds can be described by the MIC value obtained from a Synergy MIC assay or a BLI potentiation assay (e.g as described herein), both of which are run in the presence of a β-lactam.
# The experimental protocol was performed according to Clinical and Laboratory Standards Institute (CLSI) guidelines with modifications as described below (CLSI guidelines can be derived from the CLSI document M07-A9 published in January 2012: “Methods for Dilution Antimicrobial Susceptibility Tests for Bacteria That Grow Aerobically; Approved Standard-Ninth Edition”).
# To prepare for MIC testing, frozen glycerol stocks of clinical isolates (Klebsiella pneumoniae, Eschericia coli, Enterobacter spp, Citrobacter spp, or Pseudomonas aeruginosa) were used to streak for isolated colonies on rich, non-selective, tryptic soy agar containing 5% sheep's blood (TSAB). Frozen glycerol stocks of laboratory engineered, isogenic E. coli strains, which contain cloned β-lactamase expressing plasmids were used to streak for isolated colonies on rich, selective LB agar supplemented with 25 μg/mL tetracycline to maintain the plasmid. All strains were incubated at 37° C. for 18-24 hrs.
# On the day of testing, primary cultures were started by scraping off 5-10 colonies from the TSAB plates containing clinical strains or the tetracycline supplemented LB plates containing engineered strains. The clinical strain material was suspended in ˜5 mL of cation adjusted Mueller Hinton Broth (CAMHB) in 14 mL culture tubes. The engineered strain material was suspended in CAMHB (supplemented with 25 μg/mL tetracycline) in 14 mL culture tubes. All strains were incubated at 37° C. with aeration (200 rpm) for ˜2 hrs until the optical density at 600 nm (OD600) was ≧0.1.
# The two compound components of the assay were each diluted in CAMHB and added to the 96-well broth microdilution assay plates. 50 μL of the β-lactam was added to each well of the assay plate in 2-fold dilutions with final concentrations ranging from 128 to 0.13 μg/mL. 25 μL of the BLI compound was added to all wells in the broth microdilution plates at a final concentration of 4 μg/mL. Inoculum cultures were prepared by standardizing the primary cultures to OD600=0.1 and then adding 20 μL of the adjusted primary culture per 1 mL CAMHB for clinical strains or CAMHB (supplemented with tetracycline at 100 μg/mL) for engineered strains, so that the final inoculum density was ˜10^5 colony forming units per milliliter. Diluted inoculum cultures were used to inoculate 25 μL per well in 96-well broth microdilution assay plates. The final volume of each well was 100 μL and contained a β-lactam at different concentrations, a BLIcompound at 4 μg/mL concentration, the bacterial culture at an OD600 of approximately 0.001 and when necessary tetracycline at 25 μg/mL.
# Plates were incubated for 18-20 hours at 37° C. with aeration (200 rpm). Following incubation, growth was confirmed visually placing plates over a viewing apparatus (stand with a mirror underneath) and then OD600 was measured using a SpectraMax 340PC384 plate reader (Molecular Devices, Sunnyvale, Calif.). Growth was defined as turbidity that could be detected with the naked eye or achieving minimum OD600 of 0.1. MIC values were defined as the lowest concentration producing no visible turbidity.
# The synergy MIC (sMIC) assay determines the concentration of the BLI required to potentiate the activity of a fixed concentration of a β-lactam antibiotic against β-lactamase producing bacterial strains. The experimental protocol was performed according to Clinical and Laboratory Standards Institute (CLSI) guidelines with modifications as described below (CLSI guidelines can be derived from the CLSI document M07-A9 published in January 2012: “Methods for Dilution Antimicrobial Susceptibility Tests for Bacteria That Grow Aerobically; Approved Standard-Ninth Edition”). […]
row,SMILES,"activity against bacterial strains that express OXA-15, compared with Avibactam"
1,"NCCNCCc1nnc([C@@H]2CC[C@@H]3CN2C(=O)N3OS(=O)(=O)O)o1 [Compound 716, (2S,5R)-2-(5-(2-((2-aminoethyl)amino)ethyl)-1,3,4-oxadiazol-2-yl)-7-oxo-1,6-diazabicyclo[3.2.1]octan-6-yl hydrogen sulfate]",more active than Avibactam
2,"O=C1N2C[C@@H](CC[C@H]2c2nnc(N3CCNCC3)s2)N1OS(=O)(=O)O [Compound 797, (2S,5R)-7-oxo-2-(5-(piperazin-1-yl)-1,3,4-thiadiazol-2-yl)-1,6-diazabicyclo[3.2.1]octan-6-yl hydrogen sulfate]",more active than Avibactam
3,"O=C1N2C[C@@H](CC[C@H]2c2nnc(CC3CNC3)o2)N1OS(=O)(=O)O [Compound 725, (2S,5R)-2-(5-(azetidin-3-ylmethyl)-1,3,4-oxadiazol-2-yl)-7-oxo-1,6-diazabicyclo[3.2.1]octan-6-yl hydrogen sulfate]",more active than Avibactam
4,"O=C1N2C[C@@H](CC[C@H]2c2nnc(C3CCNCC3)s2)N1OS(=O)(=O)O [Compound 719, (2S,5R)-7-oxo-2-(5-(piperidin-4-yl)-1,3,4-thiadiazol-2-yl)-1,6-diazabicyclo[3.2.1]octan-6-yl hydrogen sulfate]",more active than Avibactam
5,"N[C@H]1CC[C@@H](c2nnc([C@@H]3CC[C@@H]4CN3C(=O)N4OS(=O)(=O)O)o2)CC1 [Compound 780, (2S,5R)-2-(5-((1s,4R)-4-aminocyclohexyl)-1,3,4-oxadiazol-2-yl)-7-oxo-1,6-diazabicyclo[3.2.1]octan-6-yl hydrogen sulfate]",more active than Avibactam
6,"Nc1nnc([C@@H]2CC[C@@H]3CN2C(=O)N3OS(=O)(=O)O)o1 [Compound 707, (2S,5R)-2-(5-amino-1,3,4-oxadiazol-2-yl)-7-oxo-1,6-diazabicyclo[3.2.1]octan-6-yl hydrogen sulfate]",more active than Avibactam
7,"O=C1N2C[C@@H](CC[C@H]2c2nnc(CNC3CCNCC3)o2)N1OS(=O)(=O)O [Compound 769, (2S,5R)-7-oxo-2-(5-((piperidin-4-ylamino)methyl)-1,3,4-oxadiazol-2-yl)-1,6-diazabicyclo[3.2.1]octan-6-yl hydrogen sulfate]",more active than Avibactam
8,"O=C1N2C[C@@H](CC[C@H]2c2nnc(N3CCNCC3)o2)N1OS(=O)(=O)O [Compound 713, (2S,5R)-7-oxo-2-(5-(piperazin-1-yl)-1,3,4-oxadiazol-2-yl)-1,6-diazabicyclo[3.2.1]octan-6-yl hydrogen sulfate]",more active than Avibactam
9,"N=C(N)N1CCC(c2nnc([C@@H]3CC[C@@H]4CN3C(=O)N4OS(=O)(=O)O)o2)CC1 [Compound 712, (2S,5R)-2-(5-(1-carbamimidoylpiperidin-4-yl)-1,3,4-oxadiazol-2-yl)-7-oxo-1,6-diazabicyclo[3.2.1]octan-6-yl hydrogen sulfate]",more active than Avibactam
10,"N=C(N)NCCCc1nnc([C@@H]2CC[C@@H]3CN2C(=O)N3OS(=O)(=O)O)o1 [Compound 714, (2S,5R)-2-(5-(3-guanidinopropyl)-1,3,4-oxadiazol-2-yl)-7-oxo-1,6-diazabicyclo[3.2.1]octan-6-yl hydrogen sulfate]",more active than Avibactam
11,"NCC(O)c1nnc([C@@H]2CC[C@@H]3CN2C(=O)N3OS(=O)(=O)O)o1 (stereo partly drawn) [Compound 715, (2S,5R)-2-(5-(2-amino-1-hydroxyethyl)-1,3,4-oxadiazol-2-yl)-7-oxo-1,6-diazabicyclo[3.2.1]octan-6-yl hydrogen sulfate]",more active than Avibactam
12,"NCC(N)c1nnc([C@@H]2CC[C@@H]3CN2C(=O)N3OS(=O)(=O)O)o1 (stereo partly drawn) [Compound 717, (2S,5R)-2-(5-(1,2-diaminoethyl)-1,3,4-oxadiazol-2-yl)-7-oxo-1,6-diazabicyclo[3.2.1]octan-6-yl hydrogen sulfate]",more active than Avibactam
13,"NC1CCN(c2nnc([C@@H]3CC[C@@H]4CN3C(=O)N4OS(=O)(=O)O)o2)CC1 [Compound 773, (2S,5R)-2-(5-(4-aminopiperidin-1-yl)-1,3,4-oxadiazol-2-yl)-7-oxo-1,6-diazabicyclo[3.2.1]octan-6-yl hydrogen sulfate]",more active than Avibactam
14,"NCC(O)Cc1nnc([C@@H]2CC[C@@H]3CN2C(=O)N3OS(=O)(=O)O)o1 (stereo partly drawn) [Compound 733, (2S,5R)-2-(5-(3-amino-2-hydroxypropyl)-1,3,4-oxadiazol-2-yl)-7-oxo-1,6-diazabicyclo[3.2.1]octan-6-yl hydrogen sulfate]",more active than Avibactam
15,"N[C@H]1C[C@H](NCc2nnc([C@@H]3CC[C@@H]4CN3C(=O)N4OS(=O)(=O)O)o2)C1 [Compound 757, (2S,5R)-2-(5-((((1r,3S)-3-aminocyclobutyl)amino)methyl)-1,3,4-oxadiazol-2-yl)-7-oxo-1,6-diazabicyclo[3.2.1]octan-6-yl hydrogen sulfate]",more active than Avibactam
16,"O=C1N2C[C@@H](CC[C@H]2c2nnc([C@@H]3CNCCN3)o2)N1OS(=O)(=O)O [Compound 778, (2S,5R)-7-oxo-2-(5-((S)-piperazin-2-yl)-1,3,4-oxadiazol-2-yl)-1,6-diazabicyclo[3.2.1]octan-6-yl hydrogen sulfate]",more active than Avibactam
17,"N[C@H]1CC[C@H](c2nnc([C@@H]3CC[C@@H]4CN3C(=O)N4OS(=O)(=O)O)o2)CC1 [Compound 781, (2S,5R)-2-(5-((1r,4S)-4-aminocyclohexyl)-1,3,4-oxadiazol-2-yl)-7-oxo-1,6-diazabicyclo[3.2.1]octan-6-yl hydrogen sulfate]",more active than Avibactam
18,"N=C(N)N[C@H]1C[C@H](c2nnc([C@@H]3CC[C@@H]4CN3C(=O)N4OS(=O)(=O)O)o2)C1 [Compound 748, (2S,5R)-2-(5-((1r,3S)-3-guanidinocyclobutyl)-1,3,4-oxadiazol-2-yl)-7-oxo-1,6-diazabicyclo[3.2.1]octan-6-yl hydrogen sulfate]",more active than Avibactam
19,"O=C1N2C[C@@H](CC[C@H]2c2nnc(CCCN3CCNCC3)o2)N1OS(=O)(=O)O [Compound 792, (2S,5R)-7-oxo-2-(5-(3-(piperazin-1-yl)propyl)-1,3,4-oxadiazol-2-yl)-1,6-diazabicyclo[3.2.1]octan-6-yl hydrogen sulfate]",more active than Avibactam
20,"N=C(N)NCc1nnc([C@@H]2CC[C@@H]3CN2C(=O)N3OS(=O)(=O)O)o1 [Compound 704, (2S,5R)-2-(5-(guanidinomethyl)-1,3,4-oxadiazol-2-yl)-7-oxo-1,6-diazabicyclo[3.2.1]octan-6-yl hydrogen sulfate]",more active than Avibactam
